This note sets out measurements from US10072122B2, “Carbonate polymer containing a functional group of disulfide five-membered ring in the side chain and application thereof” (BrightGene Bio-Medical Technology Co., Ltd, priority 2014, dated 2018).

The nature of data set [1]: blood circulation of targeting cross-linked vesicle loaded drug in mice. The settings on record: i.v. 10 mg/kg DOX. Type of data set: in vivo, Balb/C mice. The protocol:
The vesicle was formed with different ratio of cRGD-PEG6k-P(CDC4.6k-co-TMC18.6k) and PEG5k-P(CDC4.9k-co-TMC19k). […] Mice were intravenously injected with targeting vesicle loaded drug cRGD20/CLPs, vesicle loaded drug CLPs, targeting decross-linked vesicle cRGD20/PEG-PTMC and DOX.HCl as control (the DOX was 10 mg/kg). 10 μL of blood was taken at different time points of 0, 0.25, 0.5, 1, 2, 4, 8, 12 and 24 h, and the weight of blood was calculated with the method of balance. The blood samples upon withdrawing were immediately dissolved in 100 μL 1% triton and 500 μL of extraction solution DMF (containing 1M HCl and 20 mM DTT). Taken the supernatant by centrifugation (20000 rpm, 20 min). The DOX level in the supernatant of each time was determined by fluorometry.

Data set [2] is described as follows: biodistribution in mice bearing human glioma cells. Type of data set: in vivo. Conditions: Balb/C, mouse, tumor, iv, i.v. 10 mg/kg DOX, read-out: accumulation of DOX in tumor. The protocol:
The mice were sacrificed at 4 h and the tumor and organs of heart, liver, spleen, lung and kidney were collected, wet weighed, then 500 μL 1% triton was added, homogenized and extracted by 900 μL DMF solution (containing 1 mM HCl and 20 mM DTT). Taken the supernatant by centrifugation (20000 rpm, 20 min). The DOX level at each time was determined by fluorescence measurement.

For data set [3], the system named is B16 melanoma tumor. As to the kind of experiment: therapeutic efficacy of iRGD targeting cross-linked vesicles in mice bearing melanoma tumors. Type of data set: in vivo, C57BL/6 mice. The protocol:
The tumor size was measured every day using calipers from 0 to 20 day.

Data set [4] relates to U87MG human glioma cells. Briefly: therapeutic efficacy in mice bearing human glioma cells.
Method: Aged 4 to 6 weeks old, weight 18 to 20 g Balb/C mice (Shanghai Institutes for Biological Sciences Laboratory Animal Center) were collected. They were evenly divided into groups after weighting. U87MG human glioma cells of 5×10^6 cells were generated by subcutaneous injection into the hind flank of the mice. Mice were intravenously injected with cRGD20/CLPs, CLPs, targeting decross-linked nanoparticle vesicle (cRGD20/PEG-PTMC), DOX.HCl and PBSat 0, 4, 8.12 day when the tumor volume reached 30 to 50 mm^3 about two weeks, where the DOX proportion was 10 mg/kg. The tumor size was measured every two days using calipers from 0 to 18 day. The tumor size was calculated by V=(L*W*H)/2 (L was length of tumor, W was width of tumor, H was thickness of tumor). Continue to observe the survival of mice until 45 day.
Data set [5] is described as follows: blood circulation of cross-linked nanoparticle loaded drug in mice. The format is in vivo, C57BL/6 mice. The settings on record: i.v. 10 mg/kg DOX. On the procedure:
Mice were intravenously injected with nanoparticle loaded drug and free drug, and DOX was 10 mg/kg. 10 μL of blood was taken at different time points of 0, 0.25, 0.5, 1, 2, 4, 8, 12 and 24 h, and the weight of blood was calculated with the method of balance. The blood samples upon withdrawing were immediately dissolved in 100 μL 1% triton and 500 μL of extraction solution DMF (containing 1M HCl and 20 mM DTT). Taken the supernatant by centrifugation (20000 rpm, 20 min). The DOX level in the supernatant of each time was determined by fluorometry.

Data set [6] concerns B16 melanoma tumor. As to the kind of experiment: biodistribution in mice bearing melanoma tumors. Type of data set: in vivo, C57BL/6 mice. Conditions: i.v. 10 mg/kg DOX. On the procedure:
Mice were intravenously injected with nanoparticle loaded drug and DOX (DOX was 10 mg/kg) when the tumor volume reached 100-200 mm^3 about two weeks. The mice were sacrificed at 6, 12 or 24 h and the tumor and organs of heart, liver, spleen, lung and kidney were collected, wet weighed, then 500 μL 1% triton was added, homogenized and extracted by 900 μL DMF solution (containing 1 mM HCl and 20 mM DTT). Taken the supernatant by centrifugation (20000 rpm, 20 min). The DOX level at each time was determined by fluorescence measurement.

Data set [7] relates to B16 melanoma tumor. As to the kind of experiment: therapeutic efficacy in mice bearing melanoma tumors. The format is in vivo, C57BL/6 mice. Conditions: DOX 10 mg/kg.

Where a name gives a salt, the structure may show the parent alone.

Turning to `COc1cccc2c1C(=O)c1c(O)c3c(c(O)c1C2=O)C[C@@](O)(C(=O)CO)C[C@@H]3O[C@H]1C[C@H](N)[C@H](O)[C@H](C)O1` [DOX.HCl, doxorubicin hydrochloride], the DOX in blood entry in data set [1] (at 2 h) is on record as “can not detection”. Further, the half-life in data set [1] (mouse, whole blood, iv, Balb/C mice, read-out: half-lives of eliminate in mice (converted)) is 16.2 min. For the same compound, the tissue uptake at 4 h in data set [2] came to 0.82 %ID/g. For the same compound, the tumor growth result in data set [3] (10 mg/kg DOX.HCl at 0, 3, 6, 9, 12 day, 20 day) was “can inhibit tumor growth”; in data set [4] (10 mg/kg DOX at 0, 4, 8, 12 day, 18 day), “can inhibited tumor growth”. The “declining of body weight” value in data set [3] (10 mg/kg, at 8 day) turned out to be 20%; in data set [4] (10 mg/kg, at 12 day), 21%. Moreover, the survival rate in data set [3] (10 days) and in data set [4] (13 days) was 0 throughout.

As to `COc1cccc2c1C(=O)c1c(O)c3c(c(O)c1C2=O)C[C@@](O)(C(=O)CO)C[C@@H]3O[C@H]1C[C@H](N)[C@H](O)[C@H](C)O1` [DOX, Doxorubicin], the “half-lives of eliminate in mice” value in data set [5] (C57BL/6 mice) stood at 0.21 h. For the same compound, the DOX in blood result in data set [5] (at 2 h) is “can not detection”. Also, the accumulation in tumor in data set [6] (6 h) came out at 1.05 ID %/g; in data set [6] (12 h), 0.52 ID %/g; in data set [6] (24 h), 0.29 ID %/g. Besides, the tumor growth entry in data set [7] was “can inhibited tumor growth”. The survival rate in data set [7] (10 days) is given as 0. In data set [7] (at 7 day), this compound came in with a body weight reduced of 23%.
